This test addresses BRD4 (Homo sapiens, UniProt O60885). Kind of test: biochemical. The format is binding. To be noted: one of the FRET assays described; read-out: FRET BRD4 IC50.

By IC50 is commonly meant the concentration at which inhibition is half-maximal.

`[2H]C([2H])([2H])c1nnn(C)c1-c1ccc2c3ncc(C(C)(C)O)cc3n(C(c3cc(C)on3)C3CCOCC3)c2c1` (single isomer, unassigned) [Example 74, 2-{5-[(5-methyl-1,2-oxazol-3-yl)(oxan-4-yl)methyl]-7-[4-(^2H3)methyl-1-methyl-1H-1,2,3-triazol-5-yl]-5H-pyrido[3,2-b]indol-3-yl}propan-2-ol]: the IC50 is below 1500 nM. Then `Cc1ccc2c(n1)c1c(C(N)=O)cc(-c3c(C)noc3C)cc1n2Cc1ccccc1` [Example 1, 5-Benzyl-7-(dimethyl-1,2-oxazol-4-yl)-2-methyl-5H-pyrido[3,2-b]indole-9-carboxamide], with below 1500 nM; and `[2H]C([2H])([2H])c1nnn(C)c1-c1ccc2c3ncc(C(C)(C)O)cc3n(C(c3ncccc3F)C3CCOCC3)c2c1` (single isomer, unassigned) [Example 71, 2-{5-[(3-Fluoropyridin-2-yl)(oxan-4-yl)methyl]-7-[4-(^2H3)methyl-1-methyl-1H-1,2,3-triazol-5-yl]-5H-pyrido[3,2-b]indol-3-yl}propan-2-ol], with below 1 nM; and `Cc1nnn(C)c1-c1ccc2c3ncc(C(C)(C)O)cc3n([C@H](c3ccc(F)cc3)C3CCOCC3)c2c1` [Example 3, 2-[7-(Dimethyl-1H-1,2,3-triazol-5-yl)-5-[(S)-(4-fluorophenyl)(oxan-4-yl)methyl]-5H-pyrido[3,2-b]indol-3-yl]propan-2-ol], with below 1 nM. `Cc1nnn(C)c1-c1cc(F)c2c3ncc(C(C)(C)O)cc3n(C(CCC(F)(F)F)CCC(F)(F)F)c2c1` [Example 10, 2-[7-(Dimethyl-1H-1,2,3-triazol-5-yl)-9-fluoro-5-(1,1,1,7,7,7-hexafluoroheptan-4-yl)-5H-pyrido[3,2-b]indol-3-yl]propan-2-ol]: the half-inhibitory concentration (IC50) is below 5 nM. As for `[2H]C([2H])([2H])c1nnn(C)c1-c1cc2c(cc1F)c1ncc(C(C)(C)O)cc1n2C(c1ccc(F)cn1)C1CCOCC1` (single isomer, unassigned) [Example 45, 2-{8-fluoro-5-[(5-fluoropyridin-2-yl)(oxan-4-yl)methyl}-7-[4-(^2H3)methyl-1-methyl-1H-1,2,3-triazol-5-yl]-5H-pyrido[3,2-b]indol-3-yl]propan-2-ol], the IC50 was below 5 nM.

As to `Cc1nnn(C)c1-c1cc2c(cc1F)c1ncc(C(C)(C)O)cc1n2[C@H](c1ccccc1)C1CCOCC1` [Example 19, 2-[7-(Dimethyl-1H-1,2,3-triazol-5-yl)-8-fluoro-5-[(S)-oxan-4-yl(phenyl)methyl]-5H-pyrido[3,2-b]indol-3-yl]propan-2-ol], the concentration for half-maximal inhibition (IC50) was below 1500 nM. The figure for `[2H]C([2H])([2H])c1nnn(C)c1-c1cc2c(cc1Cl)c1ncc(C(C)(C)O)cc1n2C(c1cc(C)on1)C1CCOCC1` (single isomer, unassigned) [Example 79, 2-{8-chloro-5-[(5-methyl-1,2-oxazol-3-yl)(oxan-4-yl)methyl]-7-[4-(^2H3)methyl-1-methyl-1H-1,2,3-triazol-5-yl]-5H-pyrido[3,2-b]indol-3-yl}propan-2-ol] is below 1500 nM. The figure for `Cc1nnn(C)c1-c1ccc2c3ncc(C(C)(C)O)cc3n(C(CCC(F)(F)F)c3ccccn3)c2c1` (single isomer, unassigned) [Example 7, 2-[7-(dimethyl-1H-1,2,3-triazol-5-yl)-5-[4,4,4-trifluoro-1-(pyridin-2-yl)butyl]-5H-pyrido[3,2-b]indol-3-yl]propan-2-ol] is below 5 nM. The figure for `[2H]C([2H])([2H])c1nnn(C)c1-c1cc2c(cc1F)c1ncc(C(C)(C)O)cc1n2C(CCC)c1ncccc1F` (single isomer, unassigned) [Example 39, 2-{8-fluoro-5-[1-(3-fluoropyridin-2-yl)butyl]-7-[4-(^2H3)methyl-1-methyl-1H-1,2,3-triazol-5-yl}-5H-pyrido[3,2-b]indol-3-yl]propan-2-ol] is below 5 nM; for `[2H]C([2H])([2H])c1nnn(C)c1-c1cc2c(cc1F)c1ncc(C(C)(C)O)cc1n2C(CCC)c1ccc(F)cn1` (single isomer, unassigned) [Example 59, 2-{8-fluoro-5-[1-(5-fluoropyridin-2-yl)butyl]-7-[4-(^2H3)methyl-1-methyl-1H-1,2,3-triazol-5-yl]-5H-pyrido[3,2-b]indol-3-yl}propan-2-ol] it is below 5 nM; for `[2H]C([2H])([2H])c1nnn(C)c1-c1cc2c(cc1F)c1ncc(C(C)(C)O)cc1n2C(CCC)c1ccccn1` (single isomer, unassigned) [Example 49, 2-{8-fluoro-7-[4-(^2H3)methyl-1-methyl-1H-1,2,3-triazol-5-yl]-5-[1-(pyridin-2-yl)butyl]-5H-pyrido[3,2-b]indol-3-yl}propan-2-ol] it is below 5 nM. For `[2H]C([2H])([2H])c1nnn(C)c1-c1cc2c(cc1F)c1ncc(C(C)(C)O)cc1n2C(CCOC)c1ccccc1` (single isomer, unassigned) [Example 62, 2-[8-fluoro-5-(3-methoxy-1-phenylpropyl)-7-[4-(^2H3)methyl-1-methyl-1H-1,2,3-triazol-5-yl]-5H-pyrido[3,2-b]indol-3-yl]propan-2-ol], the IC50 was below 1500 nM. Turning to `[2H]C([2H])([2H])c1nnn(C)c1-c1cc2c(cc1F)c1ncc(C(C)(C)O)cc1n2C(c1ccc(C)cn1)C1CCOCC1` (single isomer, unassigned) [Example 57, 2-{8-fluoro-7-[4-(^2H3)methyl-1-methyl-1H-1,2,3-triazol-5-yl]-5-[(5-methylpyridin-2-yl)(oxan-4-yl)methyl]-5H-pyrido[3,2-b]indol-3-yl}propan-2-ol], the 50% inhibitory concentration (IC50) was below 1500 nM. Then `Cc1nnn(C)c1-c1cc2c(cc1F)c1ncc(C(C)(C)O)cc1n2C(c1ncccn1)C1CCOCC1` (single isomer, unassigned) [Example 55], with below 1500 nM; and `[2H]C([2H])([2H])c1nnn(C)c1-c1cc2c(cc1F)c1ncc(C(C)(C)O)cc1n2C(c1ccccn1)C1CCOCC1` (single isomer, unassigned) [Example 37, 2-{8-fluoro-7-[4-(^2H3)methyl-1-methyl-1H-1,2,3-triazol-5-yl}-5-[oxan-4-yl(pyridin-2-yl)methyl]-5H-pyrido[3,2-b]indol-3-yl]propan-2-ol], with below 5 nM; and `[2H]C([2H])([2H])c1nnn(C)c1-c1cc2c(cc1F)c1ncc(C(C)(C)O)cc1n2C(c1cc(C)on1)C1CCOCC1` (stereo not shown) [Example 34, 2-{8-Fluoro-5-[(5-methyl-1,2-oxazol-3-yl)(oxan-4-yl)methyl]-7-[4-(^2H3)methyl-1-methyl-1H-1,2,3-triazol-5-yl]-5H-pyrido[3,2-b]indol-3-yl}propan-2-ol], with below 1 nM.

Regarding `[2H]C([2H])([2H])c1nnn(C)c1-c1cc2c(cc1Cl)c1ncc(C(C)(C)O)cc1n2C(c1cc(C)on1)C1CCOCC1` (single isomer, unassigned) [Example 78, 2-{8-chloro-5-[(5-methyl-1,2-oxazol-3-yl)(oxan-4-yl)methyl]-7-[4-(^2H3)methyl-1-methyl-1H-1,2,3-triazol-5-yl]-5H-pyrido[3,2-b]indol-3-yl}propan-2-ol], the IC50 was below 1500 nM. In the case of `[2H]C([2H])([2H])c1nnn(C)c1-c1cc2c(cc1F)c1ncc(C(C)(C)O)cc1n2C(c1ccc(F)cn1)C1CCOCC1` (single isomer, unassigned) [Example 44, 2-{8-fluoro-5-[(5-fluoropyridin-2-yl)(oxan-4-yl)methyl}-7-[4-(^2H3)methyl-1-methyl-1H-1,2,3-triazol-5-yl]-5H-pyrido[3,2-b]indol-3-yl]propan-2-ol], the IC50 was below 1500 nM.

The values above are taken from patent publication US10683290B2, “Tricyclic compounds as anticancer agents” (BRISTOL-MYERS SQUIBB COMPANY, priority 2015, dated 2020).
